The values below come from PMC8230704 (Journal of the American Chemical Society, 2021).

Read-outs that look alike come from different tables or passages of the source.

For test [1], the system named is NDM-1. The conditions noted are these: substrate of NDM-1; cited from earlier work.
Test [2] deals with T1, NDM-1 (Klebsiella pneumoniae, UniProt C7C422). The test can be described thus: Challenge of fluorescent 4D:NDM-1 complex with inhibitors and chelators. The format is binding.
Test [3] addresses Δ35 NDM-1 expressing BL21 (DE3) E. coli (Klebsiella pneumoniae, UniProt C7C422). The test can be described thus: cell-based.
In test [4] the target is T1, NDM-1. As to conditions: read-out: IC50 for purified NDM-1; cited from earlier work.
Test [5] addresses T1, NDM-1. The test can be described thus: NDM-1 inhibition with chromacef substrate. Type of test: biochemical.
The target in the next test is NDM-15 Δ35 BL21 cells (Klebsiella pneumoniae, UniProt C7C422, A233V/M154L). The test can be described thus: Confocal fluorescence imaging of 4D-treated live E. coli expressing Δ35 NDM-15. Type of test: cell-based. The conditions noted are these: DPA up to 200 μM.
The conditions of test [6]: read-out: Kd,Zn(II); cited from earlier work.

Regarding chromacef, in the test on NDM-1 [1], the Km is 0.66 ± 0.2 µM.
For the molecule `CC1=C(C(=O)O)N2C(=O)[C@@H](NC(=O)[C@H](N)c3ccccc3)[C@H]2SC1` [cephalexin], in the test on NDM-1 [1], the Km was 5.6 µM.
For `c1ccc(CN(CCN(Cc2ccccn2)Cc2ccccn2)Cc2ccccn2)nc1` [TPEN, N,N,N′,N′-tetrakis(2-pyridinyl-methyl)-1,2-ethanediamine], on NDM-1 [2] (10 μM NDM-1 and 10 μM 4D, recovered upon excess ZnSO4), the “fluorescence after pre-incubation of NDM-1 with TPEN” value is given as “complete reduction of fluorescence”. Moreover, at NDM-1 [2] (30 μM NDM-1 pre-incubated with TPEN, then 10 μM 4D), the “fluorescence turn-on after pre-incubation of NDM-1 with TPEN” value is on record as ~ 4 fold. Moreover, the “fluorescence turn-on of 4D:NDM-1 after treatment” value on NDM-1 [2] (TPEN 50 μM, 10 μM ZnSO4, from 12-fold) is 9.2 fold.
`O=C(O)c1cccc(C(=O)O)n1` [DPA, dipicolinic acid]: the IC50 in test [3] is around 200 µM; on NDM-1 [4], 500 nM; at NDM-1 [5], 154 µM. The “fluorescence turn-on of 4D:NDM-1 after treatment” value on NDM-1 [2] (DPA 150 μM, 50 μM ZnSO4, from 17-fold maximum) is 13 fold. In addition, the “effect on fluorescence” value at NDM-15 Δ35 BL21 cells is recorded as “no effect on fluorescence”.
Consider `O=C([O-])CN(CCN(CC(=O)O)CC(=O)O)CC(=O)[O-].[Ca+2]` [CaEDTA, calcium EDTA], for which the Kd in test [6] is 1 nM.

The term Km denotes the concentration of substrate that gives half-maximal velocity. In general, IC50 refers to the concentration that gives 50% inhibition. Usually Kd stands for the equilibrium constant for the complex coming apart.
